Data on three molecules can be found in publication PMC9469084, “Unravelling the pharmacokinetics of aflatoxin B1: In vitro determination of Michaelis–Menten constants, intrinsic clearance and the metabolic contribution of CYP1A2 and CYP3A4 in pooled human liver microsomes” (Frontiers in Microbiology, 2022).

Several values for one entry are separate records, joined by “and”; a condition that tells them apart may be missing. Identical values can stand only once. Like-named read-outs stand apart in the source and are kept apart here. Marks after values point to notes of the source that are not given here. A value given as a limit tells only on which side of the number the result lay.

For data set [1], the system named is CYP3A4 (MDZ), CYP1A2 (PH). The data set is described as follows: in vitro. As to conditions: human, pH 7.4; for microsomal CLint: microsomes. The method, then:
(§1) A 1.15% KCl solution was made in HPLC grade water and stored at 4°C. HLM (20 mg/ml in 250 mM sucrose) were diluted in 1.15% KCl to achieve a final protein concentration of 0.1; 0.25; 0.5; 0.75 and 1 mg/ml in the samples. The stop reagent was made with 300 μl FA, 5,500 μl ACN and Ultrapure water and contained the internal standards (IS; 0.072 μM of CHL and 0.12 μg/ml of ZAN).
(§2) Samples were prepared partially based on [Schelstraete et al. (2019a],[b)]. […] Next, 50 μl of a freshly prepared NADPH.4Na solution was added. After an incubation of 3 min, 50 μl of diluted HLM was added and they were placed back on the thermoshaker TS-100 (Biosan, Geraardsbergen, Belgium) with a rotation speed of 300 rpm and at a temperature of 37°C. After the indicated time (i.e., 5, 10, 20, 30 and 45 min), 25 μl of an ice cold stop reagent with IS, i.e., CHL for CYP probes and ZAN for AFB1, was added. For protein precipitation, 125 μl of TFA was added. Samples were centrifuged at 16,000×g for 20 min at 4°C. The centrifugal filters were discarded and the supernatant was added to 1 ml of a 0.2 M phosphate buffer. Next, 7 ml of ethyl acetate was added in order to perform a liquid–liquid extraction (LLE). Samples were extracted during 20 min on an Agitelec shaker at room temperature. For phase separation, samples were centrifuged at 2,000× g for 10 min. Subsequently, the organic phase was transferred in glass tubes and evaporated under a gentle nitrogen stream at 40°C (±5°C) using a Turbovap (Biotage, Charlotte, United States). After evaporation, samples were kept at −20°C until further analysis. Upon analysis, 250 μl of a 60/40 mobile phase A (MP A; H2O/MeOH/acetic acid (94/5/1, v/v/v) + 5 mM ammonium acetate)/mobile phase B (MP B; H2O/MeOH/acetic acid (2/97/1, v/v/v) + 5 mM ammonium acetate) mixture was added. After thorough vortexing and centrifuging for 10 min at 1,000× g, the samples were transferred to an autosampler vial. An aliquot of 5 μl was injected into the ultrahigh performance liquid chromatography (UPLC) - XEVO TQ-S (LC–MS/MS) equipment using an in-house developed and validated method.
(§3) A Waters Acquity class I UPLC system coupled to a XEVO TQ-S tandem quadrupole mass spectrometer (MS) from Waters (Milford, MA, United States) was used for the detection and quantification. A Charged Surface Hybrid (CSH) C18 column (1.7 μm 2.1 × 100 mm) with Guard column was used for chromatographic separation. The column temperature was set at 30°C; the sample temperature at 10°C. The MP was used at a flow rate of 0.250 ml/min following a gradient program (Table 1). The total duration for a single run was 12 min. The MS was operated in the electrospray positive mode (ESI+) with multiple reaction monitoring (MRM). Source temperature and desolvation temperature were set at 130°C and 200°C. The cone gas flow was set at 150 L/h, the desolvation gas flow at 550 L/h. Data was processed using Masslynx® and Targetlynx® software from Micromass (Manchester, United Kingdom). Data analysis was performed by transferring Targetlynx® data to Microsoft Excel and Sigmaplot version 14.5. For AFB1, substrate depletion was measured. Nonlinear regression on sigmoidal plots where the initial depletion rate (kdep) was plotted against AFB1 concentrations on a linear-log plot, was performed using Excel Solver ([Youdim and Dodia, 2010]).
(§4) Substrate work solutions of AFB1 were made to achieve sample concentrations from 0.5 μM to 50 μM, for the HLM experiments. For rhCYP an extra AFB1 sample concentration of 100 μM was implemented. HLM (20 mg/ml in 250 mM sucrose) were diluted in 1.15% KCl to achieve a final protein concentration of 0.25 and 0.5 mg/ml in the samples, as based on previous linearity experiments. The stop reagents were those described in 2.1.2.
(§5) For CYP3A4 rhCYP experiments, 50 μl of diluted supersomes at 150 pmol/ml were used instead of HLM, achieving a final concentration of 30 pmol/ml.

The test system of data set [2] is pooled human liver microsomes. The data set is described as follows: in vitro. The method, then:
as §1, §2, §3, §4, §5

Data set [3] deals with CYP3A4 (Homo sapiens, UniProt P08684). The data set is described as follows: in vitro. The method, then:
as §4
(§6) For CYP3A4 rhCYP experiments, 50 μl of diluted supersomes at 150 pmol/ml were used instead of HLM, achieving a final concentration of 30 pmol/ml. For CYP1A2 rhCYP experiments, 50 μl of diluted EasyCYP LR bactosomes at 50 pmol/ml were used, achieving a final concentration of 10 pmol/ml.
(§7) The same equipment, settings and procedures were used as explained in Section “LC–MS/MS (linearity experiments).” Data analysis was performed by transferring Targetlynx® data to Microsoft® Excel. Metabolite formation velocity versus substrate concentration figures were plotted with error bars, Sigmaplot version 14.5 was used for determining the Michaelis–Menten constant (Km) and maximum velocity (Vmax) by performing nonlinear regression on the figures. For AFB1 substrate depletion was measured. Nonlinear regression on sigmoidal plots, where the initial depletion rate (kdep) was plotted against AFB1 concentrations on a linear-log plot, was performed using Excel Solver ([Youdim and Dodia, 2010]).
(§8) The CLH,u,int is multiplied by the AAF, leading to an AAF corrected CLH,u,int (CLH,u,int,AAF). The obtained Km and Vmax values of the CYP probes from rhCYPs were used to calculate intersystem extrapolation factors (ISEFs) for both Vmax and CLint (Equations 7 and 8).
(§9) (7) VmaxISEF=Vmax,HLM/Vmax,rhCYP∗CYPabundancepmolP450/mg
(§10) (8) CLintISEF=Vmax,HLM/Km,HLM∗10^−6/Vmax,rhCYP/Km,rhCYP∗10^−6∗CYPabundancepmolP450/mg
(§11) CLH,u,int,AAF values of AFB1 from rhCYP experiments were multiplied with the CLint ISEF, resulting in an ISEF corrected CLH,u,int,AAF (CLH,u,int,AAF,ISEF). […] Equation 10 presents the extrapolation to the whole liver hepatic blood clearance from rhCYP experiments. The hepatic blood clearance (CLH,B) was multiplied by the blood/plasma ratio (B:P) to obtain the whole liver hepatic plasma clearance, CLH,P.
(§12) (10) CLH,BL/h=QH∗fu,b∗CLH,u,int,AAF,ISEF/QH+fu,b∗CLH,u,int,AAF,ISEF
(§13) Next, Km and Vmax experiments were performed in recombinant enzyme systems. […] For AFB1, where substrate depletion was analyzed, kdep was determined for different substrate concentrations in supersomes and bactosomes which was plotted against AFB1 substrate concentrations on a log-scale (Figures 3E,F). By dividing the theoretical maximal kdep by the protein concentration, the CLint was achieved from which the Vmax could be determined ([Youdim and Dodia, 2010]).

The conditions of data set [4]: human, microsomes.
The conditions of data set [5]: cited from earlier work.
For data set [6], the system named is human liver microsomes. As to conditions: cited from earlier work.
Data set [7] deals with T1, CYP1A2 (Homo sapiens, UniProt P05177). The method, then: as §4, §6, §7, §8, §9, §10, §11, §12, §13
In another data set the test system is CYP3A4/3A5. The class given is in vitro ADME, human.
Data set [8] concerns human liver microsomes. The data set is described as follows: AFB1 inhibition assays in HLM, both contributions combined. The class given is in vitro ADME.
Data set [9] deals with CYP3A4. As to conditions: cited from earlier work.
A further data set deals with CYP3A5. The following applies: cited from earlier work.
The next data set relates to CYP3A7. As to conditions: cited from earlier work.
The conditions of data set [10]: cited from earlier work. This is another data set of the same source.
For data set [11], the target named is T1, CYP1A2. In words: AFB1 inhibition assay in HLM with α-naphthoflavone. The class given is in vitro ADME. On the set-up: tissue Corning; host or cells: human liver microsomes, UltraPool HLM 150, mixed gender.
In data set [12] the target is T1, CYP1A2. On the set-up: tissue Corning; host or cells: human liver microsomes, UltraPool HLM 150, mixed gender. As to conditions: cited from earlier work.
The mark [13] stands for this setting: HLM pool of 16.0 donors, ref Kazmi, 2015.

T1 sequence (P05177 whole entry): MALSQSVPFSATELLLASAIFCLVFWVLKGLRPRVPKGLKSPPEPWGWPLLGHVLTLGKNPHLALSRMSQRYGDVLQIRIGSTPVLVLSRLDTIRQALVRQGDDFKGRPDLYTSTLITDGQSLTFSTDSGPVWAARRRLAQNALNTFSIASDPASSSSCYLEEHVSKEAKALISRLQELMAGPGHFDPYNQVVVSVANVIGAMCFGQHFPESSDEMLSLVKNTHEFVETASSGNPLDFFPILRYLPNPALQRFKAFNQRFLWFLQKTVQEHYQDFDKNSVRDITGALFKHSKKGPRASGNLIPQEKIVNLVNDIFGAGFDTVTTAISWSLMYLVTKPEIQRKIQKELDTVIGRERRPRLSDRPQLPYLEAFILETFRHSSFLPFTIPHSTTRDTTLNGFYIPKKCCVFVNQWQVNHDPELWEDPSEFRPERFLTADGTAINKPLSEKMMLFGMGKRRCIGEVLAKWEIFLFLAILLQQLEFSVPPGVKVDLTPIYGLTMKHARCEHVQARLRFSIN
Chain of CYP3A4 (Homo sapiens, UniProt P08684) (P08684 2-503): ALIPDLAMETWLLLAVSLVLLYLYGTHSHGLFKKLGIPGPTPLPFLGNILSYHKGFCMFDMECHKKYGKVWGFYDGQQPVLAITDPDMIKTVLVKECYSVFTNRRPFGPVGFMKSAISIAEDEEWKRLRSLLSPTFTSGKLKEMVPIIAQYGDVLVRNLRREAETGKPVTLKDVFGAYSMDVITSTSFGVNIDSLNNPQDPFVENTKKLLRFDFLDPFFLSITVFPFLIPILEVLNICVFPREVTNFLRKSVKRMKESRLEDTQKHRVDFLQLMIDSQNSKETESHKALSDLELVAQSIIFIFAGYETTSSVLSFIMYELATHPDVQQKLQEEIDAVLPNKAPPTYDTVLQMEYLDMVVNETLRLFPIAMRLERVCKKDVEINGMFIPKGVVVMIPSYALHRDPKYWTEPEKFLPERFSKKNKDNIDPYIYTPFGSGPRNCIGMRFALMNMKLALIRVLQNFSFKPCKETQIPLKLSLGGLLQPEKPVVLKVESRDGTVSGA

Regarding `Cc1ncc2n1-c1ccc(Cl)cc1C(c1ccccc1F)=NC2` [MDZ, midazolam, reference compound], in data set [1], the intrinsic metabolic clearance (microsomal CLint) was 445 µL/min/mg and the Km came to 2.15 µM. In data set [2] (human, pH 7.4), the “CLH,B calculated (hepatic blood clearance, AAF corrected)” value was 44.1 L/h; the “CLH,p calculated (hepatic plasma clearance)” value is 26.6 L/h; the “CLH,u,int (whole liver)” value is given as 1,941 L/h; the “calculated CLH,B compared to literature” value was not above 1.00 fold. For the same molecule, at CYP3A4 [3] (human), the Km was determined as 3.2 µM. On CYP3A4 [3] (human, pH 7.4), the Vmax turned out to be 14.1 pmol/min/pmol P450. The molecule also registered a fraction unbound in data set [4] of 0.907. Moreover, the “CLH,p literature” value in data set [5] (ref Persson et al. (1987)) was 29.0 L/h^d. The “CLH,u,int (whole liver)” value in the data set with human liver microsomes [6] was 2,700 L/h.
As to `CCOc1ccc(NC(C)=O)cc1` [PH, phenacetin, reference compound], the microsomal CLint in data set [1] is 21.4 µL/min/mg. Besides, the Km was 40 µM in data set [1] and 10 to 62 µM in the data set with human liver microsomes [6]. Further, the “CLH,p calculated (hepatic plasma clearance)” value in data set [2] (HLM, probe substrates, CLH,B x B:P) is recorded as 21.9 L/h. The “CLH,B calculated (hepatic blood clearance, AAF corrected)” value in data set [2] (HLM, probe substrates, QH 90 L/h, Equation 9) is given as 21.7 L/h. Further, the “calculated CLH,B compared to literature” value in data set [2] (HLM, MDZ vs Kazmi, 2015, PH vs Shibata et al., 2002) is given as not above 1.04 fold. For the same molecule, the “CLH,u,int (whole liver)” value in [2] (HLM, MPPGL 40 mg/g, LW 1,650 g, Equation 4) is 84.74 L/h; with human liver microsomes [6] (setting [13]), 92.00 L/h. Besides, at CYP1A2 [7] (CYP1A2 bactosomes), the Vmax came to 11.6 pmol/min/pmol P450. Moreover, the “CLH,B literature (in vivo human hepatic blood clearance)” value in data set [5] (ref Shibata et al. (2002)) was 20.8 L/h. In addition, the “CLint,in vitro” value in the data set with human liver microsomes [6] (setting [13]) was 23.3 µL/min/mg; in the data set with human liver microsomes [6] (HLM pool of 105 donors, ref Gao et al., 2017), 14.5 µL/min/mg.
For the molecule aflatoxin B1 [AFB1], in [2], the “CLH,B calculated (hepatic blood clearance, AAF corrected), CYP3A4” value is 40.0 L/h and 40.0^CYP3A4 L/h; the “CLH,p calculated, CYP1A2” value is 39.6 L/h; the “CLH,p calculated, CYP3A4” value is 41.2 L/h; the “CLH,u,int (whole liver)” value is 1,190 L/h. Also, in data set [2], the “CLH,u,int (whole liver), CYP1A2” value is given as 583^CYP1A2 L/h; the “CLH,u,int (whole liver), CYP3A4” value is listed as 535^CYP3A4 L/h; the “CLH,u,int,AAF” value was 450^CYP3A4 L/h and 420^CYP1A2 L/h; the Michaelis constant (Km) is 40.9 µM. Also, the “CLint,in vitro” value in data set [2] (human) was found to be 282 µL/min/mg. Further, on CYP3A4 [3], the “CLH,B calculated (hepatic blood clearance, ISEF and AAF corrected)” value was 47.7 L/h; the “CLH,B from supersomes relative to CLH,B from HLM (CYP3A4)” value is 1.19 fold; the “CLH,p calculated” value is listed as 49.1 L/h; the “CLH,u,int” value is given as 755 L/h. On CYP3A4 [3], the “CLH,u,int,AAF” value is 634 L/h, the Michaelis-Menten constant (Km) worked out at 49.6 µM, the “Vmax,ISEF” value is 5.97 nmol/mg/min and the “Vmax,ISEF (ISEF corrected Vmax)” value is reported as 43.6 pmol/min/pmol P450. Besides, at CYP1A2 [7], the “CLH,B calculated (hepatic blood clearance, ISEF and AAF corrected)” value was 56.1 L/h; the “CLH,B from EasyCYP bactosomes relative to CLH,B from HLM (CYP1A2)” value was 1.46 fold; the “CLH,p calculated” value is reported as 57.8 L/h; the “CLH,u,int” value is 1,295 L/h. Further, at CYP1A2 [7], the “CLH,u,int,AAF” value is on record as 932 L/h, the Km is 58.2 µM and the “Vmax,ISEF” value was determined as 14.7 nmol/mg/min. For the same molecule, the “CYP3A4/5 contribution to AFB1 metabolism” value in the data set with CYP3A4/3A5 is listed as 45%. In the data set on human liver microsomes [8], the “contribution ascribed to other enzymes, expectedly CYP2A13” value amounted to 6.0%; the “sum of CYP3A4/5 and CYP1A2 contributions” value worked out at 94%. Further, the CYP3A4 contribution in the data set on CYP3A4 [9] was 79–95%. Besides, the Km with CYP3A4 [9] (read-out: Km for the AFBO formation via CYP3A4) was 133 µM. Moreover, the Km with CYP3A4 [9] (read-out: Km for the AFM1 formation via CYP3A4) was 139 µM. For the same molecule, the CYP3A5 contribution with CYP3A5 is 4–15%. Besides, in the data set with CYP3A7, the CYP3A7 contribution was 5–7%. For the same molecule, the “fu,B (free fraction in blood)” value in data set [10] is given as 0.160^b. In the data set on human liver microsomes [6], the “Vmax (AFBO or AFQ1 formation), range” value was 236–11,281 pmol/(mg.min). Also, the Michaelis constant (Km) in the data set on human liver microsomes [6] (read-out: Km (AFBO or AFQ1 formation), range) was 90 to 1720 µM. On CYP1A2 [11], the “CYP1A2 contribution to AFB1 metabolism” value is 49%. On CYP1A2 [12], the CYP1A2 contribution is 1–5% and the “contribution of CYP1A2” value is given as 95%. Moreover, at CYP1A2 [12] (read-out: Km for the AFBO formation via CYP1A2), the Km was 41 µM. Moreover, the Michaelis-Menten constant (Km) at CYP1A2 [12] (read-out: Km for the AFM1 formation via CYP1A2) is 29 µM.
